In patent US4713486A, “Novel compounds” (Beecham Group p.l.c., priority 1982, dated 1987):

Experiments:
cyclo-oxygenase = molecular target: T1, cyclo-oxygenase (Bos taurus, UniProt O62664); assay: Cyclo-oxygenase Screen: inhibition of cyclo-oxygenase in bovine seminal vesicle microsomes; assay type: biochemical; conditions: 50 μM compound, pH 8.0, 37° C., 5 min preincubation, 2 min reaction, 5-15 μM arachidonic acid, read-out: Cyclooxygenase Inhibition at 50 μM
T1 construct: lyophilised bovine seminal vesicle microsomes; from tissue; host or cells: bovine seminal vesicle microsomes
T1 sequence (O62664 25-600): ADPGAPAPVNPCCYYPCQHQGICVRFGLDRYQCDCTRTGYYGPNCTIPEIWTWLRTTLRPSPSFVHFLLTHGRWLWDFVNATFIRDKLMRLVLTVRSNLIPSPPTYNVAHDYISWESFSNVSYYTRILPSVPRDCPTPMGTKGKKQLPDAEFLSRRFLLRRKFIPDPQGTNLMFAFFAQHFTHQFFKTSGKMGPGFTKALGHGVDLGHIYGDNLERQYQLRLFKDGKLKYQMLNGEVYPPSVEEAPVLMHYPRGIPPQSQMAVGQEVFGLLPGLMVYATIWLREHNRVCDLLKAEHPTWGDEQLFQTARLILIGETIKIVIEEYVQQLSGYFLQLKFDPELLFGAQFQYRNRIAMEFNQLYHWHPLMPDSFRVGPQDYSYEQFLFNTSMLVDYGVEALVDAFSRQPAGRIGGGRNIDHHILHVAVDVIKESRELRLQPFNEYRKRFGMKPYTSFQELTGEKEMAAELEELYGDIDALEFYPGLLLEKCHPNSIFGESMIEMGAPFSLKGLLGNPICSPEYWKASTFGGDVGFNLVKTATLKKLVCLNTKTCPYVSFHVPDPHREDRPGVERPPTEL
Procedure: (2) Cyclo-oxygenase Screen
The inhibition of cyclo-oxygenase was measured in a buffered incubation (0.2M Tris-HCI, pH 8.0 containing 1 mM ethylene diaminetetraacetic acid) comprising 0.96 mg lyophilised bovine seminal vesicle microsomes, 5-15 μM arachidonic acid containing 0.2 μCi [1--^14 C] arachidonic acid, 2 mM glutathione, […], 1 μM haemoglobin and compound (0-0.05 mM in 5 μl dimethylsulphoxide or absolute ethanol) in a total volume of 2.0 ml. Compounds were preincubated with the incubation constitutents for 5 min at 37° C. before the reaction was started by the addition of the arachidonic acid. The reaction was continued at 37° C. for 2 min, then stopped by placing the incubations on ice and the addition of 1.2 ml 0.2M citric acid. Unmetabolised substrate and prostaglandin products were extracted in ethyl acetate (2×4 ml), the combined extracts washed with 0.8 ml water, and separated by thin-layer chromatography (Kieselgel GF254 plates in ethyl acetate:acetone:glacial acetate acid, 90:10:1, v/v). Recovery was 65-80%. The regions on the thin-layer chromatography plate that chromatographed with authentic arachidonic acid or prostaglandins E2 and F2 α (Rf 's 0.70. 0.28 and 0.16 respectively) were scraped and the radioactivity in each determined by liquid scintillation counting with a correction for quenching being made by the external standard-channels ratio method. Inhibition of cyclo-oxygenase activity was calculated from the decrease in prostaglandin formation. Each compound concentration was tested in triplicate and the 50% inhibitory concentration, if determined, was calculated by linear regression from the inhibitory data at, at least three different compound concentrations.

soybean lipoxygenase = molecular target: T2, soybean lipoxygenase (Glycine max, UniProt P08170); assay: Lipoxygenase Screen: inhibition of soybean lipoxygenase activity; assay type: biochemical; conditions: 25° C., pH 9.0, 1000 I.U. soybean lipoxygenase, 0.017 mM arachidonic acid, 5 min preincubation; range in parentheses not explained; Example 9 as N-methylglucamine salt
T2 sequence (P08170 1-839): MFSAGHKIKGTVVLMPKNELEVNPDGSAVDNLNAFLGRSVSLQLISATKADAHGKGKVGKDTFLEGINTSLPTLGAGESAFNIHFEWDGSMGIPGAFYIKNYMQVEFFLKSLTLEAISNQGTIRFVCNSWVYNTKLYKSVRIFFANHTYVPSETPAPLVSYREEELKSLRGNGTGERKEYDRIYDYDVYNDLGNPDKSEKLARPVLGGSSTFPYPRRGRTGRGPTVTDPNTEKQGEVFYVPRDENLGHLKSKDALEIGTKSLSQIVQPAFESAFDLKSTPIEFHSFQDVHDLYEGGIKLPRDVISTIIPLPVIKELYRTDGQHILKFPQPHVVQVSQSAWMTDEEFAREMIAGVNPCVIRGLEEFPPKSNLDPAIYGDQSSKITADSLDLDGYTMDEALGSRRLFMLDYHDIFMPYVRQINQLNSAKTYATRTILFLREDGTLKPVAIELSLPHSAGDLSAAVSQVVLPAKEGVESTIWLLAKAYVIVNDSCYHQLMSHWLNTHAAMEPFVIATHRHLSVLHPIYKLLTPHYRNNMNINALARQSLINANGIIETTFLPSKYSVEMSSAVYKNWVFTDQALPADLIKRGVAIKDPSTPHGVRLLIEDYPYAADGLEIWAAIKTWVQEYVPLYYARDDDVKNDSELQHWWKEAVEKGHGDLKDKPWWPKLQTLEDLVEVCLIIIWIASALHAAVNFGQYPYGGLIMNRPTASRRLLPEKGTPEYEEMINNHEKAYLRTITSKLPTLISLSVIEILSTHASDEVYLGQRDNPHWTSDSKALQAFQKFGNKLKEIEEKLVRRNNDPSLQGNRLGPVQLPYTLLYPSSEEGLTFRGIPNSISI
Procedure: Inhibition of lipoxygenase activity was measured at 25° C. in a buffered incubation system (0.2M sodium borate, pH 9.0) comprising 1000 I.U. soybean lipoxygenase, 0.017 mM arachidonic acid, and compound (0-0.050 mM, dissolved in absolute ethanol:0.9% w/v saline, 30:70 v/v) in a total volume of 2.5 ml. Enzyme and compound were preincubated together at 25° C. for 5 minutes prior to initiation of the lipoxygenase reaction by the addition of the arachidonic acid. Lipoxygenase activity was measured as the rate of the initial increase in absorbance at 235 nm due to the formation of peroxidised forms of arachidonic acid. Inhibitory activity was measured at at least three compound concentrations and the 50% inhibitory concentration determined from the plot of % inhibition versus compound concentration.

| SMILES | inhibition at 50 µM (cyclo-oxygenase) [%] | IC50 (soybean lipoxygenase) [µM] |
| --- | --- | --- |
| CCCCCCCCC/C=C\c1ccc(/C=C/C(=O)O)cc1 [Example 27] | 70.5 | 46.6 |
| CCCCCCCCCCCC#Cc1ccc(/C=C/C(=O)OC)cc1 [Example 4, Methyl 4-(1-tridecynyl)cinnamate] | – | 142 |
| CCCCCCCCC/C=C/c1ccc(/C=C/C(=O)O)cc1 [Example 26] | 52 | 52.3 |
| CCCCCCCCCCCCC/C=C\c1ccc(/C=C/C(=O)O)cc1 [Example 29] | 66.5 | – |
| CCCCCCCCCCC/C=C\c1ccccc1OCC(=O)O [Example 60, (Z) 2-[2-(1-tridecenyl)-phenoxy]ethanoic acid] | 92.4 | – |
| CCCCCCCCCCC/C=C/c1ccc(CCC(=O)O)cc1 [Example 41, 3-{4-[(E)-1-Tridecenyl]phenyl}propanoic acid] | 40 | – |
| CCCCCCCCCCC/C=C\c1ccccc1CCC(=O)O [Example 43, 3-{2-[(Z)-1-Tridecenyl]phenyl}propanoic acid] | 62.7 | 18.4 |
| CCCCCCCCCCCC#Cc1ccccc1/C=C/C(=O)O [Example 12] | 86.5 | 85.7 |
| CCCCCCCCCCC/C=C/c1ccc(/C=C/C(=O)O)cc1 [Example 24, 4-[(E)-1-Tridecenyl]cinnamic acid] | 52 | 30 |
| CCCCCCCCCCC/C=C\c1ccccc1/C=C/C(=O)O [Example 30] | 26 | 23.2 |
| CCCCCCCCCCC/C=C\c1ccc(CCC(=O)O)cc1 [Example 40, 3-{4-[(Z)-1-Tridecenyl]phenyl}propanoic acid] | 67 | – |
| CCCCCCCCCCCC#Cc1cccc(/C=C/C(=O)O)c1 [Example 13] | 79.8 | – |
| CCCCCCCCCCC/C=C\c1cccc(/C=C/C(=O)O)c1 [Example 31] | 91 | – |
| CCCCCCCCCCCC#Cc1ccccc1CCC(=O)O [Example 42, 3[2-(1-Tridecynyl)phenyl]propanoic acid] | 80 | 20 |
| CCCCCCCCCCC/C=C\c1ccc(/C=C/C(=O)O)cc1 [Example 25] | 25.6 | 35.9 |
| CCCCCCCCCCC/C=C\c1ccccc1OCCCC(=O)OCC [Example 55, (Z) Ethyl 4-[2-(1-tridecenyl)phenoxy)-butanoate] | – | 55.4 |
| CCCCCCCCCCC/C=C\c1ccc(/C=C/C(=O)OC)cc1 [Example 15, Methyl 4-[(Z)-1-tridecenyl]cinnamate] | – | 230 |
| CCCCCCCCCCCC#Cc1ccc(/C=C/C(=O)O)cc1 [Example 9, 4-(1-Tridecynyl)cinnamic acid] | – | 272 |

More lines, now with the values ahead:

| inhibition at 50 µM (cyclo-oxygenase) [%] | IC50 (soybean lipoxygenase) [µM] | SMILES |
| --- | --- | --- |
| 51 | 124 | CCCCCCCCCCC/C=C\c1ccc(OCC(=O)O)cc1 [Example 89] |
| 67 | – | CCCCCCCCCCC/C=C/c1ccccc1OCCCCC(=O)O [Example 87] |
| – | 42.8 | CCCCCCCCC/C=C\c1ccc(OCCCC(=O)O)cc1 [Example 92] |
| 67 | 4.2 | CCCCCCCCCCC/C=C\c1ccccc1OCCCC(=O)O [Example 62, (Z) 4-[2-(1-tridecenyl)phenoxy]-butanoic acid] |
| 78.9 | – | CCCCCCCCCCC/C=C\c1ccccc1OCCC(=O)O [Example 61, (Z) 3-[2-(1-tridecenyl)phenoxy]-propanoic acid] |
| 72 | – | CCCCCCCC/C=C\c1ccccc1OCCCC(=O)O [Example 82] |
| 64 | – | CCCCCCCCCCC/C=C/c1ccccc1OCCCC(=O)O [Example 85] |
| – | 75.3 | CCCCCCCCCC/C=C\c1ccc(OCCC(=O)O)cc1 [Example 90] |
